Measured values published in patent US20070082818A1, “Agrochemical compositions” (priority 2003, published 2007).
Structures can show the parent of a compound that is named as a salt.

Assays:
[1] = test system: eight representative weed species; experiment: Bioperformance enhancement of paraquat by amine/amide adjuvants, moving track sprayer; format: in vivo; conditions: paraquat dichloride spray at 10, 20 and 40 g/ha paraquat ion, 200 l/ha; adjuvant 0.5% by weight of spray volume (aminoethylpiperazine 0.625%); 7 days after treatment; mean over all species and combined rates; 0% no herbicidal effect, 100% complete kill
Experimental: The bioperformance enhancement of paraquat in the presence of amines or amides of the present invention was evaluated. An aqueous formulation of paraquat dichloride containing 0.5% by weight of the quinuclidine (based on the weight of the amine salt), N-(aminopropyl) morphiline (based on the weight of the parent amine) or 1-(2-hydroxethyl-2-imidazolidinone) (based on the weight of the amide), all based on total spray volume was applied using a moving track sprayer to eight representative weed species at 10, 20 and 40 g/ha (based on paraquat ion). The spray volume was equivalent to 200 l/ha. For aminoethylpiperazine the formulation contained 0.625% by weight of the amine (based on the parent amine).
The results are compared with an equivalent formulation containing only paraquat chloride.

[2] = format: physicochemical
Description: It is to be understood that the term physical incompatibility in relation to adjuvants used in bipyridyl compositions indicates either gross separation of one or more components of the composition which may or may not be accompanied by a significant change in formulation rheology or bulk homogeneity. It is not necessarily essential that the composition is fully homogeneous in a strict physical sense provided that the composition is substantially homogeneous in the bulk. Thus a slight separation of a second phase may be acceptable provided that the separated phase remains fully dispersed in the bulk. […] This is obviously undesirable for a number of reasons. The term physical compatibility indicates the reverse of physical incompatibility as defined above.

[3] = Physical compatibility of formulations by microscopic examination; format: physicochemical; conditions: corresponding formulations with about 120 g/l magnesium sulphate heptahydrate
[4] = test system: drilled broad leaved & grass weeds; experiment: Field trials of 200 g/l paraquat compositions applied as foliar spray; format: in vivo; conditions: 39% and 51% of the conventional adjuvant system substituted
Experimental: Field Trials were conducted at 8 locations where the target plants were a range of drilled broad leaved & grass weeds. The 200 g/l paraquat compositions were applied as a foliar spray at application rates of 75, 150 & 300 g/ha paraquat ion, and at an application volume of 200 l/ha at a weed growth stage when the grasses were tillering & the broadleaved weeds were branching.

Row | Molecule | Mean Activity (%) [1] [%] | further results
1 | O=C1NCCN1CCO [1-(2-hydroxethyl-2-imidazolidinone)] | 66 | –
2 | NCCN1CCNCC1 [Aminoethylpiperazine] | 72 | –
3 | NCCCN1CCOCC1 [N-(Aminopropyl) morphiline] | 65 | –
4 | C1CN2CCC1CC2 [Quinuclidine as hydrochloride salt, Quinuclidine] | 68 | –
5 | CCCCCCCCOC(=O)CC(C(=O)OCCCCCCCC)S(=O)(=O)O.[Na] (centres unmarked) [sodium dioctyl sulfosuccinate, reference compound] | – | Adjuvant level at which physical separation / two phases were observed ([2]; about 120 g/l paraquat ion, about 80 g/l diquat ion, alginate, about 120 g/l magnesium sulphate heptahydrate): below 10 g/l
6 | aminoethylpiperazine [AEP] | – | Adjuvant loading compatible with compositions of WO 02/076212 ([2]; actual amine): ≥ 40 g/L; Physical compatibility when conventional surfactants were replaced by AEP [3]: significant improvement; Effect on biological performance of substituting conventional adjuvant system by AEP [4]: no deleterious effect
